The target in one experiment is T1, YjdN (Escherichia coli, UniProt P16681).
T1 construct: C-terminal His10 tag; purified by IMAC and size exclusion chromatography
T1 sequence (P16681 1-147): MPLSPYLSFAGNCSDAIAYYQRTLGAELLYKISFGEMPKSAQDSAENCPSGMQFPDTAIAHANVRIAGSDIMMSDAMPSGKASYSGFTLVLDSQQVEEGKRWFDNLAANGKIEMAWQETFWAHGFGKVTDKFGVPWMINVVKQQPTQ
The experiment is described as follows: surface plasmon resonance. Type of experiment: binding. From the text: surface plasmon resonance on YjdN | Direct binding of CFX to YjdN or YbaA was further assessed by surface plasmon resonance
For orientation: SPR reads the build-up and loss of mass on a sensor chip optically.

For a further experiment, the target named is T2, YbaA (Escherichia coli, UniProt P0AAQ6).
T2 construct: C-terminal His10 tag; purified by IMAC and size exclusion chromatography; printed peptide IVECWASDVPDGKVTDFR
T2 sequence (P0AAQ6 1-117): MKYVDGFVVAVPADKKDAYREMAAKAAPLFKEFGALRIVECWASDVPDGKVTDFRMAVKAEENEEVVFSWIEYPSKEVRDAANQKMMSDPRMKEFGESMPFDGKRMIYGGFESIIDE
The experiment is described as follows: surface plasmon resonance. Type of experiment: binding. From the text:
surface plasmon resonance on YbaA | Direct binding of CFX to YjdN or YbaA was further assessed by surface plasmon resonance

The text below walks through data of doi:10.1101/2025.10.16.682360v1, “Live-Cell Chemoproteomic Profiling Identifies the Uncharacterised Protein YbaA as a Direct Target of Ciprofloxacin in Escherichia coli” (biorxiv, 2025).

Take `O=C(O)c1cn(C2CC2)c2cc(N3CCNCC3)c(F)cc2c1=O` [compound 1, Ciprofloxacin]: the Kd (usually the equilibrium constant for the complex coming apart) came to 1400 ± 620 nM at YjdN and 1000 ± 340 nM on YbaA.
